Several values for one entry are separate records, joined by “and”; a condition that tells them apart may be missing. Equal values may be shown once.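 Interpolation was linear, between the two tested concentrations surrounding the appropriate level; five concentrations were tested over 48 hours in 96-well plates. GI50: concentration for 50% inhibition of growth. TGI: total growth inhibition.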
Columns and labels:
Assay in all cases: NCI-60 cell line screen, 48 h
DU-145 prostate = system: DU-145 prostate
SK-MEL-28 melanoma = system: SK-MEL-28 melanoma
HOP-62 NSCLC = system: HOP-62 NSCLC
ACHN renal = system: ACHN renal
EKVX NSCLC = system: EKVX NSCLC
OVCAR-5 ovarian = system: OVCAR-5 ovarian
TK-10 renal = system: TK-10 renal
CCRF-CEM leukemia = system: CCRF-CEM leukemia
M14 melanoma = system: M14 melanoma
NCI-H23 lung = system: NCI-H23 lung
CAKI-1 renal = system: CAKI-1 renal
HT29 colon = system: HT29 colon
NCI-H522 lung = system: NCI-H522 lung
NCI/ADR-RES ovarian = system: NCI/ADR-RES ovarian
SW-620 colon = system: SW-620 colon
UO-31 renal = system: UO-31 renal
U251 CNS = system: U251 CNS
SK-MEL-2 melanoma = system: SK-MEL-2 melanoma
HL-60(TB) leukemia = system: HL-60(TB) leukemia
OVCAR-4 ovarian = system: OVCAR-4 ovarian
MCF7 breast = system: MCF7 breast
RXF 393 renal = system: RXF 393 renal
SNB-75 CNS = system: SNB-75 CNS
RPMI-8226 leukemia = system: RPMI-8226 leukemia
NCI-H226 lung = system: NCI-H226 lung
PC-3 prostate = system: PC-3 prostate
MDA-N = system: MDA-N
SF-268 CNS = system: SF-268 CNS
KM12 colon = system: KM12 colon
UACC-62 melanoma = system: UACC-62 melanoma
SF-539 CNS = system: SF-539 CNS
MDA-MB-231 breast = system: MDA-MB-231 breast
BT-549 breast = system: BT-549 breast
LOX IMVI melanoma = system: LOX IMVI melanoma
SR leukemia = system: SR leukemia
MDA-MB-435 = system: MDA-MB-435
SNB-19 CNS = system: SNB-19 CNS
A498 renal = system: A498 renal
HCC-2998 colon = system: HCC-2998 colon
T-47D breast = system: T-47D breast
HCT-116 colon = system: HCT-116 colon
HS 578T breast = system: HS 578T breast
MALME-3M melanoma = system: MALME-3M melanoma
K-562 leukemia = system: K-562 leukemia
SK-MEL-5 melanoma = system: SK-MEL-5 melanoma
HOP-92 NSCLC = system: HOP-92 NSCLC
OVCAR-8 ovarian = system: OVCAR-8 ovarian
SF-295 CNS = system: SF-295 CNS
HCT-15 colon = system: HCT-15 colon
UACC-257 melanoma = system: UACC-257 melanoma
786-0 renal = system: 786-0 renal
COLO 205 colon = system: COLO 205 colon
NCI-H460 lung = system: NCI-H460 lung
OVCAR-3 ovarian = system: OVCAR-3 ovarian
MOLT-4 leukemia = system: MOLT-4 leukemia
IGROV1 ovarian = system: IGROV1 ovarian
A549 NSCLC = system: A549 NSCLC
SK-OV-3 ovarian = system: SK-OV-3 ovarian

COc1cc2cc(C(=O)N3C[C@H](CCl)c4c3cc(O)c3ccccc43)[nH]c2c(OC)c1OC
GI50 (DU-145 prostate): < 0.01 µM
TGI (DU-145 prostate): 1.53 µM and 0.213 µM
TGI (SK-MEL-28 melanoma): 1.99 µM
GI50 (HOP-62 NSCLC): 0.0157 µM
TGI (HOP-62 NSCLC): 0.198 µM and 1.06 µM
TGI (ACHN renal): 0.581 µM
GI50 (EKVX NSCLC): 0.139 µM
TGI (EKVX NSCLC): 0.953 µM and 0.641 µM
GI50 (OVCAR-5 ovarian): 0.0237 µM
TGI (OVCAR-5 ovarian): 2.15 µM and 13.7 µM
GI50 (TK-10 renal): 0.0571 µM
TGI (TK-10 renal): > 100 µM
GI50 (CCRF-CEM leukemia): < 0.01 µM
TGI (CCRF-CEM leukemia): 0.048 µM
GI50 (M14 melanoma): 0.0268 µM
GI50 (NCI-H23 lung): < 0.01 µM
TGI (NCI-H23 lung): 0.234 µM and 0.0927 µM
GI50 (CAKI-1 renal): < 0.01 µM
GI50 (HT29 colon): 2.64 µM
TGI (HT29 colon): 6.82 µM
GI50 (NCI-H522 lung): 0.0104 µM
GI50 (NCI/ADR-RES ovarian): 1.34 µM
TGI (NCI/ADR-RES ovarian): 0.563 µM and 4.62 µM
GI50 (SW-620 colon): < 0.01 µM
TGI (UO-31 renal): 0.543 µM
GI50 (U251 CNS): 0.019 µM
TGI (U251 CNS): 3.23 µM and 3.06 µM
TGI (SK-MEL-2 melanoma): 0.461 µM
TGI (HL-60(TB) leukemia): 0.0105 µM
GI50 (OVCAR-4 ovarian): 0.0612 µM
TGI (OVCAR-4 ovarian): 2.76 µM and 14.6 µM
GI50 (MCF7 breast): < 0.01 µM
TGI (MCF7 breast): 10.2 µM
TGI (RXF 393 renal): 0.194 µM
TGI (SNB-75 CNS): 0.449 µM
GI50 (RPMI-8226 leukemia): < 0.01 µM
GI50 (NCI-H226 lung): 1.79 µM
TGI (NCI-H226 lung): 0.504 µM and 3.38 µM
GI50 (PC-3 prostate): 0.0355 µM
TGI (PC-3 prostate): 2.27 µM and 18.9 µM
TGI (MDA-N): 2.13 µM
GI50 (SF-268 CNS): 0.0169 µM
TGI (SF-268 CNS): 0.563 µM and 4.99 µM
GI50 (KM12 colon): 0.0425 µM
TGI (KM12 colon): 0.677 µM and 1.37 µM
GI50 (UACC-62 melanoma): 0.0351 µM
TGI (SF-539 CNS): 0.192 µM
TGI (MDA-MB-231 breast): 3.94 µM
GI50 (BT-549 breast): 0.0312 µM
TGI (BT-549 breast): 1.56 µM and 0.46 µM
GI50 (LOX IMVI melanoma): 0.0201 µM
TGI (LOX IMVI melanoma): 1.83 µM and 12.3 µM
TGI (SR leukemia): 0.0672 µM
GI50 (MDA-MB-435): 0.0201 µM
TGI (MDA-MB-435): 0.634 µM and 0.0912 µM
GI50 (SNB-19 CNS): 0.0391 µM
TGI (SNB-19 CNS): 1.42 µM and 1.67 µM
TGI (A498 renal): 0.684 µM
GI50 (HCC-2998 colon): 0.0286 µM
TGI (HCC-2998 colon): 0.654 µM and 1.13 µM
GI50 (T-47D breast): 0.0256 µM
TGI (T-47D breast): 0.362 µM
GI50 (HCT-116 colon): 0.0165 µM
TGI (HCT-116 colon): 59 µM
TGI (HS 578T breast): 0.652 µM
GI50 (MALME-3M melanoma): 0.0259 µM
TGI (MALME-3M melanoma): 0.442 µM and 0.0827 µM
GI50 (K-562 leukemia): 0.046 µM
TGI (SK-MEL-5 melanoma): 0.0439 µM
TGI (HOP-92 NSCLC): 2.65 µM
GI50 (OVCAR-8 ovarian): 1.67 µM
TGI (OVCAR-8 ovarian): 1.13 µM and 3.53 µM
TGI (SF-295 CNS): 1.23 µM
GI50 (HCT-15 colon): 0.022 µM
GI50 (UACC-257 melanoma): 0.135 µM and 0.0459 µM
GI50 (786-0 renal): 0.0174 µM
TGI (786-0 renal): 0.493 µM and 0.0519 µM
GI50 (COLO 205 colon): 0.118 µM
TGI (COLO 205 colon): 1.8 µM and 0.483 µM
GI50 (NCI-H460 lung): < 0.01 µM
TGI (NCI-H460 lung): 4.34 µM and 23.5 µM
GI50 (OVCAR-3 ovarian): 0.0474 µM
TGI (OVCAR-3 ovarian): 14.4 µM
GI50 (MOLT-4 leukemia): < 0.01 µM
TGI (MOLT-4 leukemia): 6.22 µM

C[C@@H]1CC(=O)[C@@]2(C)[C@](O)(CCC3O[C@]32C)[C@@]12CC(c1ccoc1)OC2=O (stereo not given in full)
TGI (DU-145 prostate): > 100 µM
TGI (SK-MEL-28 melanoma): > 100 µM
TGI (ACHN renal): > 100 µM
TGI (EKVX NSCLC): > 100 µM
TGI (OVCAR-5 ovarian): > 100 µM
TGI (TK-10 renal): > 100 µM
TGI (CCRF-CEM leukemia): 59.8 µM
TGI (M14 melanoma): > 100 µM
TGI (NCI-H23 lung): > 100 µM
TGI (CAKI-1 renal): > 100 µM
TGI (HT29 colon): > 100 µM
TGI (NCI-H522 lung): > 100 µM
TGI (NCI/ADR-RES ovarian): > 100 µM
TGI (SW-620 colon): > 100 µM
TGI (IGROV1 ovarian): > 100 µM
TGI (UO-31 renal): > 100 µM
TGI (U251 CNS): > 100 µM
TGI (SK-MEL-2 melanoma): > 100 µM
TGI (HL-60(TB) leukemia): 62.8 µM
TGI (OVCAR-4 ovarian): > 100 µM
TGI (MCF7 breast): > 100 µM
TGI (RXF 393 renal): 88.6 µM
TGI (SNB-75 CNS): > 100 µM
TGI (RPMI-8226 leukemia): > 100 µM
TGI (NCI-H226 lung): > 100 µM
TGI (PC-3 prostate): > 100 µM
TGI (MDA-N): > 100 µM
TGI (KM12 colon): > 100 µM
TGI (UACC-62 melanoma): > 100 µM
TGI (SF-539 CNS): > 100 µM
TGI (MDA-MB-231 breast): > 100 µM
TGI (BT-549 breast): > 100 µM
TGI (LOX IMVI melanoma): > 100 µM
TGI (SR leukemia): 68.5 µM
TGI (MDA-MB-435): > 100 µM
TGI (A549 NSCLC): > 100 µM
TGI (SNB-19 CNS): > 100 µM
TGI (A498 renal): > 100 µM
TGI (HCC-2998 colon): > 100 µM
TGI (T-47D breast): > 100 µM
TGI (HCT-116 colon): > 100 µM
TGI (HS 578T breast): > 100 µM
TGI (MALME-3M melanoma): > 100 µM
TGI (K-562 leukemia): > 100 µM
TGI (SK-MEL-5 melanoma): > 100 µM
TGI (SK-OV-3 ovarian): > 100 µM
TGI (OVCAR-8 ovarian): > 100 µM
TGI (SF-295 CNS): > 100 µM
TGI (HCT-15 colon): > 100 µM
TGI (UACC-257 melanoma): > 100 µM
TGI (786-0 renal): > 100 µM
TGI (COLO 205 colon): > 100 µM
TGI (NCI-H460 lung): > 100 µM
TGI (OVCAR-3 ovarian): > 100 µM
TGI (MOLT-4 leukemia): 58.5 µM

— PubChem BioAssay (NCI)
